Measurements reported in US20150141411A1, “SUBSTITUTED 3,4-DIHYDRO-2H-PYRIDO[1,2-A]PYRAZINE-1,6-DIONE DERIVATIVES USEFUL FOR THE TREATMENT OF (INTER ALIA) ALZHEIMER'S DISEASE” (Janssen Pharmaceuticals, Inc., priority 2012, published 2015).

Experiments:
Aβ38 = test: In vivo efficacy: brain soluble Aβ38 in non-transgenic rodents (MSD electrochemiluminescence multiplex); parameters: species or system mouse; details: dose 30 mg/kg oral dosing, brain soluble fraction, animals sacrificed after 4 h; for response vs control in vivo at 30 mg/kg: Mus musculus, po, 4 h, untreated animals (Ctrl) set at 100, read-out: Aβ38 (% vs Ctrl)_Mean
Excerpt: (§1) To determine whether acute administration of an Aβ38 increasing agents would increase Aβ38 levels in vivo, non-transgenic rodents, e.g. mice or rats were used. Animals treated with the Aβ38 increasing agents were examined and compared to those untreated or treated with vehicle and brain levels of soluble Aβ42, Aβ40, Aβ38, and Aβ37 were quantitated by MSD electrochemiluminescence detection technology. Treatment periods varied from hours (h) to days and were adjusted based on the results of the Aβ38 increase once a time course of onset of effect could be established.
(§2) A typical protocol for measuring Aβ38 increase in vivo is shown but it is only one of many variations that could be used to optimize the levels of detectable Aβ. For example, Aβ38 increasing agents were formulated in 20% of Captisol® (a sulfobutyl ether of β-cyclodextrin) in water or 20% hydroxypropyl βcyclodextrin. The Aβ38 increasing agents were administered as a single oral dose or by any acceptable route of administration to overnight fasted animals. After 4 h, the animals were sacrificed and Aβ38 levels were analysed.
(§3) Blood was collected by decapitation and exsanguinations in EDTA-treated collection tubes. Blood was centrifuged at 1900 g for 10 minutes (min) at 4° C. and the plasma recovered and flash frozen for later analysis. The brain was removed from the cranium and hindbrain. The cerebellum was removed and the left and right hemisphere were separated. The left hemisphere was stored at −18° C. for quantitative analysis of test compound levels. The right hemisphere was rinsed with phosphate-buffered saline (PBS) buffer and immediately frozen on dry ice and stored at −80° C. until homogenization for biochemical assays.
(§4) Mouse brains from non-transgenic animals were resuspended in 8 volumes of 0.4% DEA (diethylamine)/50 mM NaCl containing protease inhibitors (Roche-11873580001 or 04693159001) per gram of tissue, e.g. for 0.158 g brain, add 1.264 ml of 0.4% DEA. All samples were homogenized in the FastPrep-24 system (MP Biomedicals) using lysing matrix D (MPBio #6913-100) at 6 m/s for 20 seconds. Homogenates were centrifuged at 20800×g for 5 min and supernatants collected. Supernatants were centrifuged at 221.300×g for 50 min. The resulting high speed supernatants were then transferred to fresh eppendorf tubes. Nine parts of supernatant were neutralized with 1 part 0.5 M Tris-HCl pH 6.8 and used to quantify Aβ.
(§5) To quantify the amount of Aβ42, Aβ40, Aβ38, and Aβ37 in the soluble fraction of the brain homogenates, simultaneous specific detection of Aβ42, Aβ40, Aβ38, and Aβ37 was performed using MSD's electro-chemiluminescence multiplex detection technology. In this assay purified monoclonal antibodies specific for Abeta37 (JRD/Aβ37/3), Abeta38 (J&JPRD/Aβ38/5), Abeta40 (JRF/cAβ40/28), and Abeta42 (JRF/cAβ42/26) were coated on MSD 4-plex plates. Briefly, the standards (a dilution of synthetic Aβ42, Aβ40, Aβ38, and Aβ37) were prepared in 1.5 ml Eppendorf tube in Ultraculture, with final concentrations ranging from 10000 to 0.3 pg/m. The samples and standards were co-incubated with Sulfo-tag labelled JRF/rAβ/2 antibody to the N-terminus of Aβ as detector antibody. 50 μl of conjugate/sample or conjugate/standards mixtures were then added to the antibody-coated plate. The plate was allowed to incubate overnight at 4° C. in order to allow formation of the antibody-amyloid complex. Following this incubation and subsequent wash steps the assay was finished by adding read buffer according to the manufacturer's instructions (MesoScale Discovery, Gaitherburg, Md.).
(§6) The SULFO-TAG emits light upon electrochemical stimulation initiated at the electrode. MSD Sector instrument SI6000 was used for signal read-out.
In this model a Aβ38 increase compared to untreated animals would be advantageous, in particular a Aβ38 increase with at least 10%, more in particular a Aβ38 increase with at least 20%. […]

Aβ40 = test: In vivo efficacy: brain soluble Aβ40 in non-transgenic rodents (MSD electrochemiluminescence multiplex); parameters: species or system mouse; details: dose 30 mg/kg oral dosing, brain soluble fraction, animals sacrificed after 4 h; for response vs control in vivo at 30 mg/kg: Mus musculus, po, 4 h, untreated animals (Ctrl) set at 100, read-out: Aβ40 (% vs Ctrl)_Mean; for Aβ40 (% vs Ctrl)_Mean: untreated animals (Ctrl) set at 100, 30 mg/kg
Excerpt: as §1, with “Aβ42 lowering agent” for “Aβ38 increasing agents”, “reduce Aβ42” for “increase Aβ38”, “Meso Scale Discovery's (MSD)” for “MSD”, “Aβ42 lowering” for “Aβ38 increase”
as §2, with “measuring Aβ42 lowering” for “measuring Aβ38 increase”, “example, Aβ42 lowering compounds” for “example, Aβ38 increasing agents”, “(a sulfo-butyl” for “(a sulfobutyl”, “The Aβ42 lowering” for “The Aβ38 increasing”, “and Aβ42” for “and Aβ38”
as §3, §4
as §5, with “(Meso Scale” for “(MesoScale”
as §6
The results are shown in Table 5 (dose 30 mg/kg oral dosing) (value for untreated animals as control (Ctrl) was set at 100): […]

| SMILES | response vs control in vivo at 30 mg/kg (Aβ38) | response vs control in vivo at 30 mg/kg (Aβ40) | Aβ40 (% vs Ctrl)_Mean (Aβ40) | Aβ38 (% vs Ctrl)_Mean (Aβ38; untreated animals (Ctrl) set at 100, 30 mg/kg) |
| --- | --- | --- | --- | --- |
| Cc1cn(-c2ccc3n(c2=O)C[C@@H](C)N(Cc2cc(N4CCOC(C(F)(F)F)C4)cc(C(F)(F)F)c2)C3=O)cn1 (mixture of isomers) [compound 153] | 108% | 128% |  |  |
| Cc1cn(-c2ccc3n(c2=O)CC(C)N(C(C)c2cc(C(F)(F)F)cc(C(F)(F)F)c2)C3=O)cn1.Cl (single isomer, unassigned) [compound 111] | 136% |  | 52 % vs Ctrl |  |
| Cc1cn(-c2ccc3n(c2=O)CC(C)N(C(C)c2cc(C(F)(F)F)cc(C(F)(F)F)c2)C3=O)cn1.Cl (single isomer, unassigned) [compound 112] |  |  | 82 % vs Ctrl | 153 % vs Ctrl |
| CCC(c1cc(OC)cc(C(F)(F)F)c1)N1C(=O)c2ccc(-n3cnc(C)c3)c(=O)n2C[C@H]1C (single isomer, unassigned) [compound 141] | 145% | 122% |  |  |
| CCOc1cc(C(C)N2C(=O)c3ccc(-n4cnc(C)c4)c(=O)n3C[C@H]2C)cc(C(F)(F)F)c1 (single isomer, unassigned) [compound 143] | 122% | 129% |  |  |
| Cc1cn(-c2ccc3n(c2=O)CCN(C(C)c2c[nH]c4cc(F)c(Cl)cc24)C3=O)cn1 (single isomer, unassigned) [compound 183] | 141% | 133% |  |  |
| Cc1cn(-c2ccc3n(c2=O)CCN(C(C)c2cn(C)c4cc(F)c(Cl)cc24)C3=O)cn1 (single isomer, unassigned) [compound 185] | 170% | 89% |  |  |
| Cc1cn(-c2ccc3n(c2=O)CC(C)N(C(C)c2cn(C)c4cc(F)c(Cl)cc24)C3=O)cn1 (single isomer, unassigned) [compound 189] | 116% | 118% |  |  |
| CCn1cc(C(C)N2C(=O)c3ccc(-n4cnc(C)c4)c(=O)n3CC2C)c2cc(Cl)c(F)cc21 (single isomer, unassigned) [compound 192] | 147% | 44% |  |  |
| Cc1cn(-c2ccc3n(c2=O)CC(C)N(C(C)c2cn(C(C)C)c4cc(F)c(Cl)cc24)C3=O)cn1 (single isomer, unassigned) [compound 194] | 197% | 43% |  |  |
| Cc1cn(-c2ccc3n(c2=O)CC(C)N(C(C)c2c[nH]c4c(F)cc(Cl)cc24)C3=O)cn1 (single isomer, unassigned) [compound 219] | 119% | 95% |  |  |
| Cc1cn(-c2ccc3n(c2=O)CC(C)N(Cc2cc(C(F)(F)F)cc(C(F)(F)F)c2)C3=O)cn1 (stereo not shown) [compound 3] | 133% | 85% |  |  |
| Cc1cn(-c2ccc3n(c2=O)CC(C)N(Cc2cc(OCC4CC4)cc(C(F)(F)F)c2)C3=O)cn1.Cl (stereo not shown) [compound 6] | 118% | 108% |  |  |
| Cc1cn(-c2ccc3n(c2=O)C[C@@H](C)N(CCc2cc(C(F)(F)F)cc(C(F)(F)F)c2)C3=O)cn1 [compound 50] | 160% | 112% |  |  |
| Cc1cn(-c2ccc3n(c2=O)C[C@@H](C)N(Cc2cc(N4CCC(C)CC4)ccc2Cl)C3=O)cn1 [compound 80] | 133% | 164% |  |  |
| Cc1cn(-c2ccc3n(c2=O)C[C@@H](C)N(Cc2cc(N4CCCC4)ccc2Cl)C3=O)cn1 [compound 82] | 118% | 125% |  |  |
| Cc1cn(-c2ccc3n(c2=O)C[C@@H](C)N(Cc2cc(CC4CC4)cc(C(F)(F)F)c2)C3=O)cn1 [compound 110] | 102% | 103% |  |  |
| Cc1cn(-c2ccc3n(c2=O)C[C@@H](C)N(Cc2cc(C4CC4)cc(C(F)(F)F)c2)C3=O)cn1 [compound 116] | 182% | 105% |  |  |
| C[C@@H]1Cn2c(ccc(-n3cnc(Cl)c3)c2=O)C(=O)N1Cc1cc(C(F)(F)F)cc(C(F)(F)F)c1 [compound 118] | 140% | 115% |  |  |
| Cc1cn(-c2ccc3n(c2=O)C[C@@H](C)N(Cc2cc(OC(C)C)nc(C(F)(F)F)c2)C3=O)cn1 [compound 128] | 162% | 116% |  |  |
| COc1cccc(CN2C(=O)c3ccc(-n4cnc(C)c4)c(=O)n3C[C@H]2C)c1 [compound 132] | 84% | 121% |  |  |
| Cc1cn(-c2ccc3n(c2=O)C[C@@H](C)N(Cc2ccc(F)c(F)c2)C3=O)cn1 [compound 133] | 84% | 77% |  |  |
| Cc1cn(-c2ccc3n(c2=O)C[C@@H](C)N(Cc2cc(CC(F)(F)F)cc(C(F)(F)F)c2)C3=O)cn1 [compound 134] | 138% | 115% |  |  |
| Cc1cn(-c2ccc3n(c2=O)C[C@@H](C)N(Cc2cc(OC(F)(F)F)cc(C(F)(F)F)c2)C3=O)cn1 [compound 140] | 96% | 71% |  |  |
| Cc1cn(-c2ccc3n(c2=O)C[C@@H](C)N(Cc2cc(Br)cc(C(F)(F)F)c2)C3=O)cn1 [compound 145] | 102% | 92% |  |  |
| Cc1cn(-c2cc(F)c3n(c2=O)C[C@@H](C)N(Cc2cc(C(F)(F)F)cc(C(F)(F)F)c2)C3=O)cn1 [compound 158] | 120% | 98% |  |  |
